Reference: paper PMC10515631, “Mapping the Initial Stages of a Protective Pathway that Enhances Catalytic Turnover by a Lytic Polysaccharide Monooxygenase” (Journal of the American Chemical Society, 2023)

Legend:
Assay in all cases: stopped-flow UV-vis
Type in all cases: biochemical
Settings in all cases: oxidant reacting with Cu(I) enzyme, no polysaccharide substrate; 100 uM enzyme, 500 uM oxidant
CvAA9 = target: T1, CvAA9 (Achaetomiella virescens, UniProt A0A223GEC9)
T1 construct: gene AA9A; mature secreted AA9 LPMO, Cu(I) form; host and construct only in supplement
T1 sequence (A0A223GEC9 23-274): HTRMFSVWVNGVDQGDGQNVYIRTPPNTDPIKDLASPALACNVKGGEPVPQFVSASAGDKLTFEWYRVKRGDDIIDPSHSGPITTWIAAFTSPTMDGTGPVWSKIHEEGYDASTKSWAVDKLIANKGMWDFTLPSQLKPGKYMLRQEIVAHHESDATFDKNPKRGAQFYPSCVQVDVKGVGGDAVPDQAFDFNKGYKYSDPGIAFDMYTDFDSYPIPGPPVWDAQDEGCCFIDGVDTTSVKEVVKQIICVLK

TaAA9 = target: T2, TaAA9 (Thermoascus aurantiacus, UniProt G3XAP7)
T2 construct: gene LPMO9A; mature secreted AA9 LPMO, Cu(I) form; host and construct only in supplement
T2 sequence (G3XAP7 whole entry): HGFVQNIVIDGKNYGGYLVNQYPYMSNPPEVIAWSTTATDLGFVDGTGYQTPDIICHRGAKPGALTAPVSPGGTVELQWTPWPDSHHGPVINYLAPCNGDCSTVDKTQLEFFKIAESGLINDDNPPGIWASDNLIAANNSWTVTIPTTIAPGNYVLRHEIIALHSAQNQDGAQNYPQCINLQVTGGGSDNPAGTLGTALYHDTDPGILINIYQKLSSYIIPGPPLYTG

LsAA9 = target: T3, LsAA9 (Panus similis, UniProt A0A0S2GKZ1)
T3 construct: gene LPMO9A; mature secreted AA9 LPMO, Cu(I) form; expressed in Escherichia coli (fungal host also compared); details in supplement
T3 sequence (A0A0S2GKZ1 20-254): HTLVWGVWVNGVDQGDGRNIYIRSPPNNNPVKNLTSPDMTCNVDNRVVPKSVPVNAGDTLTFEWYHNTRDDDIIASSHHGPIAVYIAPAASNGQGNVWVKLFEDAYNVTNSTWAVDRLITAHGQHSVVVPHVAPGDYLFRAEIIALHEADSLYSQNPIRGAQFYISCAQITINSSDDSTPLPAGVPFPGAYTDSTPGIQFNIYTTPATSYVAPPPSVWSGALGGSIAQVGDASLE

Compound: O=C(OO)c1cccc(Cl)c1 [m-CPBA, meta-chloro-perbenzoic acid]
- stopped-flow UV-vis (CvAA9): transient intermediates generated upon oxidation of CuI–TaAA9, CvAA9, and LsAA9 with mCPBA
- stopped-flow UV-vis (TaAA9): transient intermediates generated upon oxidation of CuI–TaAA9, CvAA9, and LsAA9 with mCPBA
- stopped-flow UV-vis (LsAA9): transient intermediates generated upon oxidation of CuI–TaAA9, CvAA9, and LsAA9 with mCPBA
